Experimental findings from PubChem BioAssay (NCI) are described below.

Some test systems named below: DMS 273 small cell lung; M19-MEL melanoma; SNB-78 CNS; RXF-631 renal; HS 578T breast; MDA-N; XF 498 CNS.
Holding throughout (experiment): NCI tumour cell line growth inhibition, 48 h

In brackets after ≈: the same amount, converted by molar mass.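 Exposure lasted 48 hours, with cells grown in 96-well plates and compounds tested at five concentrations. GI50: concentration for 50% inhibition of growth. TGI marks complete inhibition of growth.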

On to `C=CCC(C)(C(=O)NCCC)C(=O)c1ccccc1O` (configuration not stated), for which the TGI with DMS 273 small cell lung, in the assay with M19-MEL melanoma and in the assay on SNB-78 CNS was greater than 100 µM each time.

Take `O=C1c2ccccc2C2(O)Oc3cccc(O)c3C12O` (configuration not stated): the TGI in the assay on DMS 273 small cell lung, in the assay with M19-MEL melanoma, with RXF-631 renal and in the assay with SNB-78 CNS was greater than 100 µM in each case.

In the case of `C=C1C(=O)O[C@H]2[C@H]1CC(=O)/C(C)=C\CC[C@@]1(C)O[C@@H]21`, in the assay on HS 578T breast, the GI50 was 4.43 µg/mL (≈ 16.9 µM) and the TGI amounted to 9.16 µg/mL. In addition, in the assay with MDA-N, the GI50 is 3.58 µg/mL (≈ 13.7 µM) and the TGI came to 7.87 µg/mL.

On to `Cc1nn(C)c(=O)c2nn(-c3ccccc3)c(C)c12`, for which the TGI in the assay with DMS 273 small cell lung, in the assay with M19-MEL melanoma and in the assay with SNB-78 CNS was greater than 100 µM throughout.

As for `O=C1C=C(Nc2nc(C(=O)O)cc(=O)[nH]2)c2ccccc2C1=O`, the TGI in the assay on HS 578T breast and in the assay with MDA-N was greater than 100 µM in each case.

For the compound `CCOC(=O)C1(C(=O)OCC)CC=C(C)CC12C(=O)Nc1ccccc12` (configuration not stated), the TGI with DMS 273 small cell lung, in the assay on M19-MEL melanoma and with XF 498 CNS was greater than 100 µM each time.

For `O=C1CCC(=O)C12CCc1cccc(O)c12`, the TGI in the assay with DMS 273 small cell lung, in the assay on M19-MEL melanoma, in the assay with SNB-78 CNS and in the assay with XF 498 CNS was greater than 100 µM each time.

Take `Cn1cnc([N+](=O)[O-])c1Sc1nnc(C(F)(F)F)n1C`: the TGI is 87.5 µM in the assay on DMS 273 small cell lung, 37.2 µM in the assay with M19-MEL melanoma, 39.6 µM in the assay on RXF-631 renal and greater than 100 µM in the assay with SNB-78 CNS.

Take `COc1cc(C(CC(OC)OC)=C(C#N)C#N)cc(OC)c1OC`: the TGI is 27.6 µM with DMS 273 small cell lung, 33.4 µM with M19-MEL melanoma and greater than 100 µM in the assay with SNB-78 CNS.

For `N#CC(=S)Nc1ccc(F)cc1`, in the assay on MDA-N, the TGI is greater than 100 µM.

Turning to `CS(=O)(=O)CS(=O)CS(=O)CS(=O)CC(NC(=O)CCC(N)C(=O)O)C(=O)O` (configuration not stated), the TGI in the assay on HS 578T breast and in the assay on MDA-N was greater than 100 µM throughout.

As to `COc1ccc(S(=O)(=O)N/N=C(\C)CN2C(=O)c3ccccc3C2=O)cc1`, the TGI with DMS 273 small cell lung, in the assay with M19-MEL melanoma, in the assay on RXF-631 renal and in the assay with SNB-78 CNS was greater than 100 µM throughout.

On to `CC1=N/C(=C\c2cccc3ccccc23)C(=O)O1`, for which the TGI with M19-MEL melanoma, in the assay on RXF-631 renal and in the assay on SNB-78 CNS was greater than 100 µM each time.

As to `CCCCCCCCCC(=O)N[C@H]1CCc2cc(OC)c(OC)c(OC)c2-c2ccc(SC)c(=O)cc21`, the TGI stood at 0.295 µM with DMS 273 small cell lung, 67.4 µM in the assay with M19-MEL melanoma, 38.9 µM with SNB-78 CNS and 0.0693 µM with XF 498 CNS.

As for `COc1ccc(Nc2c[nH]c(=O)[nH]c2=O)cc1`, the TGI with MDA-N is greater than 100 µM.

On to `CC(C)(CCC(C)(C)c1ccccc1)c1ccccc1`, for which the TGI in the assay on HS 578T breast came out at 53.4 µM; in the assay with MDA-N, 56.8 µM.

Regarding `COC1(OC)c2ccccc2C2(O)c3ccccc3C(=O)C12` (configuration not stated), the TGI in the assay on DMS 273 small cell lung was greater than 100 µM; in the assay on M19-MEL melanoma, greater than 100 µM; with SNB-78 CNS, greater than 100 µM; in the assay on XF 498 CNS it was 58.8 µM.

Take `O=C1NC(=S)NC(=O)C1=Cc1ccc2ccccc2n1`: the TGI with DMS 273 small cell lung, in the assay with M19-MEL melanoma and in the assay with SNB-78 CNS was greater than 100 µM in each case.

As to `O=[N+]([O-])c1ccc2c(c1)S(=O)c1ccccc1-2` (configuration not stated), the TGI with HS 578T breast and with MDA-N was greater than 100 µM throughout.

Regarding `COc1ccc(N2C(=O)C3c4[nH]c5ccccc5c4C4CCC(C(C)(C)C)CC4C3C2=O)cc1OC` (configuration not stated), the TGI with DMS 273 small cell lung was 31.2 µM; in the assay with M19-MEL melanoma it was greater than 100 µM; with SNB-78 CNS it was 56.4 µM; in the assay on XF 498 CNS it was 34.7 µM.

In the case of `COP1(=S)OCC2CCC[C@@H]2O1` (some centres not stated), the TGI in the assay with MDA-N was greater than 100 µM.

As to `CC1=N/C(=C\c2ccc([N+](=O)[O-])cc2)C(=O)O1`, the TGI with M19-MEL melanoma, in the assay on RXF-631 renal and with SNB-78 CNS was greater than 100 µM in each case.

In the assay with MDA-N, `N#Cc1ccc2oc3ccc(C#N)cc3c(=O)c2c1` registered a TGI of 31.9 µM.

Regarding `Cc1nc2ccc(NCCN(C)C)c3c(=O)c4cc(O)ccc4n1c23`, the TGI was 1.76 µM in the assay with DMS 273 small cell lung; 2.77 µM in the assay on HS 578T breast; 9.27 µM with M19-MEL melanoma; 13.7 µM in the assay on MDA-N; 1.96 µM in the assay with RXF-631 renal; 11.2 µM with XF 498 CNS.

As for `O=C1CCC2CCOc3ccc(O)c1c32` (configuration not stated), the TGI in the assay on DMS 273 small cell lung, in the assay with M19-MEL melanoma, with RXF-631 renal and in the assay with SNB-78 CNS was greater than 100 µM in each case.

As for `COc1cccc2c1C(=O)c1c(O)c3c(c(O)c1C2=O)C[C@@](O)(/C(C)=N\O)C[C@@H]3OC1CC(N)C(O)C(C)O1` (some centres not stated), the TGI came out at 4.52 µM in the assay on DMS 273 small cell lung; 6.58 µM in the assay with HS 578T breast; 3.79 µM in the assay on M19-MEL melanoma; 5.83 µM in the assay on MDA-N; 45.5 µM in the assay with RXF-631 renal; 8.2 µM in the assay on SNB-78 CNS. The compound also had a TGI in the assay with XF 498 CNS of 0.951 µM.
